The source of these data is US6379400B1, “Dye compositions and methods of dyeing keratin fibers” (Wella Aktiengesellschaft, priority 1998, dated 2002).

For orientation: melting point means the temperature, or range, at which the solid turns liquid. Compound `COCCNc1ccc([N+](=O)[O-])cc1C` [Example 2, N-(2-methoxyethyl)-2-methyl-4-nitrophenylamine] returned a melting point of 97 to 100 °C.
The same measure for `COCCNc1ccc([N+](=O)[O-])cc1` [Example 1, N-(2-methoxyethyl)-4-nitro-phenylamine]: 85 to 87 °C.
